The values below come from article PMC3368261, “Substituted aminopyrimidine protein kinase B (PknB) inhibitors show activity against Mycobacterium tuberculosis” (Bioorganic & Medicinal Chemistry Letters, 2012).

One data set concerns M. tuberculosis. Description: Alamar blue cellular assay against M. tuberculosis (MIC). Format: cell-based. To be noted: Mycobacterium tuberculosis. (The colour change of resazurin is a common sign of viable cells or microbes.)
Another data set has as its target PknB (Mycobacterium tuberculosis, UniProt P9WI81). Description: PknB enzyme inhibition, in vitro phosphorylation of the substrate GarA. Format: biochemical.
A further data set can be described thus: physchem. Type of data set: physicochemical.
Data set [1] relates to 76-member human kinase panel. Type of data set: biochemical. The conditions noted are these: 10 μM inhibitor concentration, 76 kinases.
Where [2] appears, read: assay conditions described in Ref. [8] (Table 5: Ref. [10]), read-out: PknB IC50.

What is called MIC is the lowest concentration found to suppress growth. The low end stands for greater potency, the high end for weaker potency. By logD is commonly meant lipophilicity at a set pH, counting ionised and neutral species. A higher logD goes with higher lipophilicity.

In brackets after ≈: the same amount, converted by molar mass. Where two headings read alike, the source gives them in different places.

PknB, sequence (P9WI81 whole entry): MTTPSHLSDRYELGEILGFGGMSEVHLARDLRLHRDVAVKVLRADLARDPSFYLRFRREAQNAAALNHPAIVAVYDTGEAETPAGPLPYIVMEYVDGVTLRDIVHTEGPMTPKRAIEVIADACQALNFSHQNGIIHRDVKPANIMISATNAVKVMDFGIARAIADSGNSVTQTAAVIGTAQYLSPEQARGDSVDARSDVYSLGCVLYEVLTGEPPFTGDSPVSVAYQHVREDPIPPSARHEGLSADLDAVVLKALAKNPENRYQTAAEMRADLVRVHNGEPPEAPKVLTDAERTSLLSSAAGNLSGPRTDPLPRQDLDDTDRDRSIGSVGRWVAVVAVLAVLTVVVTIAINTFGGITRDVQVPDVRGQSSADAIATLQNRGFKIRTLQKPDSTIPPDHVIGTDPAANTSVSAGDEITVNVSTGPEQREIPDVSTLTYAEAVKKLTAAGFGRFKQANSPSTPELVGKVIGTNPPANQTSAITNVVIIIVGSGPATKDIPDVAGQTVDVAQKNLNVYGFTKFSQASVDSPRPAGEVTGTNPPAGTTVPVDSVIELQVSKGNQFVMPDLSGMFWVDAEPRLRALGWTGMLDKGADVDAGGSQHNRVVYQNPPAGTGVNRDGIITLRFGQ

`CN(C)CCNc1cc(Nc2cc(C3CC3)[nH]n2)nc(-c2ccccc2)n1` [Compound 11a] yielded a minimal inhibitory concentration (MIC) against M. tuberculosis of 125 µM (≈ 45.4 µg/mL). Moreover, the IC50 at PknB (setting [2]) worked out at 88 nM. The compound further yielded a logD in the data set “physchem” of 3.7.
`CN1CCC(CNc2cc(Nc3cc(C4CC4)[nH]n3)nc(-c3ccccc3)n2)CC1` [Compound 11c] registered an MIC with M. tuberculosis of 31 µM (≈ 12.5 µg/mL). Besides, the IC50 on PknB (read-out: PknB IC50) was found to be 55 nM. In the data set “physchem”, this compound showed a pH-dependent lipophilicity (logD) of 2.3.
Take `CN(C)[C@@H]1CCN(c2cc(Nc3ccccn3)nc(-c3cccc(C#N)c3)n2)C1` [Compound 16a]: the MIC against M. tuberculosis came out at 31 µM (≈ 11.9 µg/mL). Also, at PknB (setting [2]), the IC50 is 1990 nM.
On the same counts, the results for `c1cc(Nc2cc(C3CC3)[nH]n2)nc(NC2CCCC2)n1` [Compound 8n] are 63 µM (≈ 17.9 µg/mL) and 115 nM.
Consider `Cc1cc(Nc2nc(-c3ccc(F)cc3)nc3ccccc23)n[nH]1` [Compound 5c], for which the IC50 at PknB (setting [2]) was 1160 nM.
`Clc1ccccc1CCNc1nccc(Nc2cc(C3CC3)[nH]n2)n1` [Compound 8l]: the MIC against M. tuberculosis is 125 µM (≈ 44.4 µg/mL). Further, the IC50 on PknB (setting [2]) is 64 nM.
In the data set on M. tuberculosis, `Fc1ccc(-c2nccc(Nc3cc(C4CC4)[nH]n3)n2)cc1` [Compound 8a] returned an MIC greater than 500 µM. Besides, the IC50 on PknB (setting [2]) is 375 nM.
Compound `N#Cc1cccc(-c2nccc(Nc3cc(C4CC4)[nH]n3)n2)c1` [Compound 8f] showed an MIC with M. tuberculosis of 125 µM (≈ 37.8 µg/mL). At PknB (read-out: PknB IC50), the IC50 is 87 nM.
With `CN(C)CCNc1cc(Nc2cc(C3CC3)[nH]n2)nc(-c2cccc(C#N)c2)n1` [Compound 15b], in the data set with M. tuberculosis, the minimal inhibitory concentration (MIC) was determined as 63 µM (≈ 24.5 µg/mL). Further, the “gain in PknB enzyme affinity” value on PknB is recorded as “approximately twofold”. For the same compound, on PknB (setting [2]), the IC50 came to 39 nM.
In the data set with M. tuberculosis, `CN1CCC(CNc2cc(Nc3cc(C4CC4)[nH]n3)nc(-c3cccc(S(C)(=O)=O)c3)n2)CC1` [Compound 15d] yielded a minimal inhibitory concentration (MIC) of 63 µM (≈ 30.3 µg/mL). In addition, at PknB (read-out: PknB IC50), the IC50 is 40 nM.
Turning to `c1ccc(-c2nc(Nc3cc(C4CC4)[nH]n3)c3ccccc3n2)cc1` [Compound 5e], the IC50 at PknB (setting [2]) was 440 nM.
Compound `CN(C)[C@@H]1CCN(c2cc(Nc3cc(C(F)(F)F)ccn3)nc(-c3cccc(C#N)c3)n2)C1` [Compound 16d] displayed a minimal inhibitory concentration (MIC) against M. tuberculosis of 16 µM (≈ 7.26 µg/mL). Further, on PknB (read-out: PknB IC50), the IC50 stood at 40 nM.
On to `c1cc(Nc2cc(C3CC3)[nH]n2)nc(NCC2CC2)n1` [Compound 8m], for which the minimum inhibitory concentration (MIC) in the data set on M. tuberculosis amounted to 250 µM (≈ 67.6 µg/mL). Moreover, the IC50 at PknB (read-out: PknB IC50) came out at 217 nM.
Regarding `CN(C)[C@@H]1CCN(c2cc(Nc3cc(Cl)ccn3)nc(-c3ccccc3)n2)C1` [Compound 16c], the “kinase selectivity against human kinase panel” value in data set [1] was “improvement in selectivity relative to 11e”. Also, in the data set on M. tuberculosis, the minimum inhibitory concentration (MIC) was found to be 8 µM (≈ 3.16 µg/mL). For the same compound, the IC50 on PknB (setting [2]) was found to be 176 nM.
With `Fc1ccc(-c2nc(Nc3cc(C4CC4)[nH]n3)c3ccccc3n2)cc1` [Compound 5d], on PknB (setting [2]), the IC50 came to 223 nM.
In turn, `c1ccc(CNc2nccc(Nc3cc(C4CC4)[nH]n3)n2)cc1` [Compound 8j] returned an MIC with M. tuberculosis of 125 µM (≈ 38.3 µg/mL). In addition, at PknB (setting [2]), the IC50 was 715 nM.
For `Fc1ccc(-c2nc(Nc3cc[nH]n3)c3ccccc3n2)cc1` [Compound 5b], the IC50 on PknB (setting [2]) is 453 nM.
In the data set on M. tuberculosis, `CS(=O)(=O)NCc1ccc(-c2nccc(Nc3cc(C4CC4)[nH]n3)n2)cc1` [Compound 8e] gave a minimum inhibitory concentration (MIC) of 63 µM (≈ 24.2 µg/mL). The IC50 on PknB (setting [2]) was 241 nM.
In the data set with M. tuberculosis, `c1cncc(-c2nccc(Nc3cc(C4CC4)[nH]n3)n2)c1` [Compound 8g] yielded an MIC of 125 µM (≈ 34.8 µg/mL). Also, at PknB (setting [2]), the IC50 was 202 nM.
The compound `CC(C)CCNc1nccc(Nc2cc(C3CC3)[nH]n2)n1` [Compound 8i] showed a minimum inhibitory concentration (MIC) in the data set on M. tuberculosis of 63 µM (≈ 18 µg/mL). Also, on PknB (setting [2]), the IC50 amounted to 354 nM.
In the case of `CS(=O)(=O)c1cccc(-c2nccc(Nc3cc(C4CC4)[nH]n3)n2)c1` [Compound 8d], inhibition of growth with M. tuberculosis (MIC) required 63 µM (≈ 22.4 µg/mL). Moreover, at PknB (setting [2]), the IC50 turned out to be 86 nM.
Regarding `CS(=O)(=O)Nc1cccc(-c2nccc(Nc3cc(C4CC4)[nH]n3)n2)c1` [Compound 8c], the minimum inhibitory concentration (MIC) in the data set with M. tuberculosis amounted to 31 µM (≈ 11.5 µg/mL). Further, the IC50 at PknB (setting [2]) is 393 nM.
With `c1ccc2c(Nc3cc(C4CC4)[nH]n3)nc(-c3ccncc3)nc2c1` [Compound 5a], the “improvement in PknB binding affinity” value on PknB is “fourfold improvement in binding affinity”. The IC50 at PknB (read-out: PknB IC50) came out at 322 nM.
In turn, `c1cc(Nc2cc(C3CC3)[nH]n2)nc(NC2CCCCC2)n1` [Compound 8h] returned an MIC with M. tuberculosis of 63 µM (≈ 18.8 µg/mL). In addition, the IC50 at PknB (setting [2]) amounted to 84 nM.
For the compound `CN(C)[C@@H]1CCN(c2cc(Nc3cc(C4CC4)[nH]n3)nc(-c3cccc(C#N)c3)n2)C1` [Compound 15a], the lowest concentration to inhibit growth against M. tuberculosis (MIC) was 63 µM (≈ 26.1 µg/mL). The IC50 on PknB (setting [2]) was determined as 56 nM.
`c1ccc(-c2nc(Nc3cc(C4CC4)[nH]n3)cc(OCCN3CCCC3)n2)cc1` [Compound 11f] registered an MIC against M. tuberculosis of 31 µM (≈ 12.1 µg/mL). For the same compound, on PknB (setting [2]), the IC50 was 56 nM. The compound also returned a logD in “physchem” of 3.4.
`NC(=O)c1cccc(-c2nccc(Nc3cc(C4CC4)[nH]n3)n2)c1` [Compound 8b] yielded a minimal inhibitory concentration (MIC) against M. tuberculosis of 63 µM (≈ 20.2 µg/mL). The IC50 at PknB (setting [2]) was 384 nM.
As to `Cc1cc(Nc2nc(-c3ccncc3)nc3ccccc23)n[nH]1` [Compound 1], the IC50 on PknB (high throughput screen, GarA phosphorylation, read-out: PknB inhibition (HTS hit)) came out at 1350 nM.
`CN(C)[C@@H]1CCN(c2cc(Nc3cc(C4CC4)[nH]n3)nc(-c3ccccc3)n2)C1` [Compound 11e]: 16 µM (≈ 6.23 µg/mL) was the least that counted as inhibitory in the data set with M. tuberculosis (MIC). On PknB (setting [2]), the IC50 worked out at 53 nM. This compound also had a logD in the data set “physchem” of 3.8.
The compound `COc1ccnc(Nc2cc(N3CC[C@@H](N(C)C)C3)nc(-c3ccccc3)n2)c1` [Compound 16b] gave an MIC with M. tuberculosis of 31 µM (≈ 12.1 µg/mL). The IC50 at PknB (setting [2]) was found to be 1130 nM.
Regarding `c1ccc2c(Nc3cc(C4CC4)[nH]n3)nc(NCC3CC3)nc2c1` [Compound 5g], the IC50 at PknB (setting [2]) worked out at 428 nM.
In turn, `CN1CCN(c2cc(Nc3cc(C4CC4)[nH]n3)nc(-c3ccccc3)n2)CC1` [Compound 11b] yielded an MIC against M. tuberculosis of 63 µM (≈ 23.7 µg/mL). Further, the IC50 at PknB (setting [2]) amounted to 121 nM. Moreover, the log distribution coefficient (logD) in the data set “physchem” stood at 3.6.
`CN1CCC(CNc2cc(Nc3cc(C4CC4)[nH]n3)nc(-c3cccc(C#N)c3)n2)CC1` [Compound 15c] registered a minimum inhibitory concentration (MIC) against M. tuberculosis of 31 µM (≈ 13.3 µg/mL). Besides, the “gain in PknB enzyme affinity” value on PknB is recorded as “approximately twofold”. On PknB (setting [2]), the IC50 is 23 nM.
On to `Fc1cccc(CCNc2nccc(Nc3cc(C4CC4)[nH]n3)n2)c1` [Compound 8k], for which, in the data set on M. tuberculosis, the minimal inhibitory concentration (MIC) turned out to be 63 µM (≈ 21.3 µg/mL). The IC50 at PknB (read-out: PknB IC50) came to 74 nM.
The compound `CN1CCC(Nc2cc(Nc3cc(C4CC4)[nH]n3)nc(-c3ccccc3)n2)CC1` [Compound 11d] displayed a minimal inhibitory concentration (MIC) with M. tuberculosis of 31 µM (≈ 12.1 µg/mL). The IC50 on PknB (setting [2]) was 73 nM. Also, the log distribution coefficient (logD) in “physchem” was 2.3.
Turning to `c1ccc2c(Nc3cc(C4CC4)[nH]n3)nc(NC3CCCCC3)nc2c1` [Compound 5f], the IC50 on PknB (read-out: PknB IC50) worked out at 107 nM.
